For assay [1], the system named is IRE1a. Put plainly: IRE1a Endoribonuclease Nanoluciferase Assay (XBP1 luciferase reporter in 293T cells). The format is cell-based, human. To be noted: Homo sapiens, HEK-293T, ER stressor, tested as Formic Acid Salt (37: HCl Salt). The procedure:
Compounds disclosed herein assessed for disruption of IRE1 signaling using a IRE1a Endoribonuclease Nanoluciferase Assay. Briefly, 25×10^5 293T cells were seeded in a 10 cm^2 tissue culture plate. About 24 hours later, the cells were transfected with Effectene. In a 15 mL tube, the following was added: 2 ug XBP1 luciferase reporter plasmid (PGK-Luc2-P2A-XBP1u-Nanoluciferase-Pest); 300 ul EC buffer; and 16 ul Enhancer, followed by incubation at room temp for 5 minutes. Next, 60 ul Effectene (Qiagen 301427) was added, followed by incubation at room temperature for 10 minutes. 2.6 mL cDMEM media was added. Old media was aspirated from the cells, followed by addition of 7 mL fresh media. Full transfection mixture was added dropwise to cells. Cells were incubated for 6 hours, followed by trypsinization, centrifugation and resuspension in 11 mL fresh cDMEM media. 100 uL of cells were plated per a well in a 96 well plate. A day later, ER stressors of choice +/−inhibitors were added. To harvest, media was aspirated from cells completely, then 50 uL 1× passive lysis buffer (Promega: E1941) was added per well and put on shaker (300 rpm) for 30 minutes at room temperature. Cells were centrifuged, and 15 uL sample per well was added to a new, opaque white 384 well plate (Corning 3570). 15 uL OneGlo (nanoluciferase kit, Promega N1630) was added. Plates were spun down, placed on shaker (300 rpm) for 10 minutes. Plates were read on luminometer, 1000 ms integration time per well. 15 uL Stop an Glo (nanoluciferase kit) was added. Plates were spun down, placed on shaker (300 rpm) for 10 minutes. Plates were read on luminometer, 1000 ms second integration time per well. Recordings are provided below in Table 4.

Assay [2] concerns the target T1, IRE1a (Homo sapiens, UniProt O75460).
T1 construct: purchased SignalChem
The assay can be described thus: In vitro FRET assay (IRE1a cleavage of XBP1 RNA probe). The format is biochemical. The note with it: 2 nM SignalChem IRE1a, tested as Formic Acid Salt (37: HCl Salt). The procedure: In vitro FRET assay was performed to evaluate the ability of select compounds to inhibit IRE1, the results of which are summarized in Table 3. To perform the in vitro FRET assay, 1× complete assay buffer (CAB: […], 50 mM sodium citrate pH 7.15, 1 mM magnesium acetate, 0.02% tween 20) was used to SignalChem IRE1a protein to a final concentration of 2 nM. Selected compounds were serially diluted with DMSO in a non-binding black 384-well plate for a total of 15 ul in each well. 2 ul of the serially diluted compound or DMSO control were then added to new wells containing 98 ul of 1× CAB, for a total volume of 100 ul, 10 ul of which were then transferred to wells of a new plate. 5 ul of the diluted IRE1a was then added to each well. 5 ul of a […] XBP1 RNA probe was then added to each well. Fluorescence was then read over 30 minutes in kinetic mode (485/515 nm).
Two RNA probes were used, XBP1 wildtype (SEQ ID NO: 2) which is able to be spliced by active IRE1a or XBP1 mutant (SEQ ID NO: 3) which is unable to be spliced. Each probe contained a 5′ 6-FAM modification and a 3′ IOWA black FQ modification. […]

T1 sequence (O75460 19-977): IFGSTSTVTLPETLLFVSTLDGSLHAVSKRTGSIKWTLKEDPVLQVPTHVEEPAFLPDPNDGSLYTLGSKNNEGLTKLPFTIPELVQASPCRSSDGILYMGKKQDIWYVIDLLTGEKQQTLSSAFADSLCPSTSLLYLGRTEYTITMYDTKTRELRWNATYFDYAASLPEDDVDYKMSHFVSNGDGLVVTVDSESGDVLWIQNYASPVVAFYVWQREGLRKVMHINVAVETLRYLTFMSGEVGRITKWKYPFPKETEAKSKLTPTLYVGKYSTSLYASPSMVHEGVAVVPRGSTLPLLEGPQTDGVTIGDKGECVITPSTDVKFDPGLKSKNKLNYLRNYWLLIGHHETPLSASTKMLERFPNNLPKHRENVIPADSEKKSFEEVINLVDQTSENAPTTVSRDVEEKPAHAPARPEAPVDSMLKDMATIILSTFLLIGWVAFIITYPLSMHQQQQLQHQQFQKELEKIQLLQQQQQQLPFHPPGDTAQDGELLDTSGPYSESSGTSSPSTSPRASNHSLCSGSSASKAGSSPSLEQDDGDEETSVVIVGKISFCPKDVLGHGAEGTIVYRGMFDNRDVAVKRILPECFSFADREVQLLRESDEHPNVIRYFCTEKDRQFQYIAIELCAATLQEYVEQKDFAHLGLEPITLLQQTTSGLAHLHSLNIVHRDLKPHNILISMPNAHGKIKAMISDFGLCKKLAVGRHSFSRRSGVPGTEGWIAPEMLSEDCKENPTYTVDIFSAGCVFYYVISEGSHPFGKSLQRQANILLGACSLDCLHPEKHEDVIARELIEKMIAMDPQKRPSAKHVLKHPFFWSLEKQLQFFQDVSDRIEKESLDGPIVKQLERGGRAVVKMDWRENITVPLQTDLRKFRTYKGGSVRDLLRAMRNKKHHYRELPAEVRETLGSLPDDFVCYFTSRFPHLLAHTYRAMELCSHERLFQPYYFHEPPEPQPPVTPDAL

Regarding `CCc1cc(-c2ccc(NS(=O)(=O)c3ccccc3Cl)c(F)c2)cc2cnc(N[C@@H]3CC[C@H](N)[C@H](C)C3)nc12` [Compound 70, N-(4-(2-(((1R,3R,4S)-4-amino-3-methylcyclohexyl)amino)-8-ethylquinazolin-6-yl)-2-fluorophenyl)-2-chlorobenzene-sulfonamide], in the assay on IRE1a [1], the EC50 was no more than 5 nM. As for `Cc1nc(NS(=O)(=O)c2ccccc2Cl)c(F)cc1-c1cc(F)c2nc(N[C@H]3CC[C@H](N(C)C)CC3)ncc2c1` [Compound 156, 2-chloro-N-(5-(2-(((1r,4r)-4-(dimethylamino)cyclohexyl)amino)-8-fluoroquinazolin-6-yl)-3-fluoro-6-methylpyridin-2-yl)benzenesulfonamide], the IC50 on IRE1a [2] fell in the range of 100 to 10000 nM.

Take `CCc1cc(-c2ccc(NS(=O)(=O)c3ccccc3Cl)c(F)c2)cc2cnc(N[C@H]3CCCNC3)nc12` [Compound 73, (S)-2-chloro-N-(4-(8-ethyl-2-(piperidin-3-ylamino)quinazolin-6-yl)-2-fluoropbenyl) benzenesulfon-amide]: in the assay on IRE1a [1], the 50% effective concentration (EC50) was no more than 5 nM. Take `N[C@H]1CC[C@H](Nc2ncc3cc(-c4ccc(NS(=O)(=O)c5ccccc5Cl)nn4)ccc3n2)CC1` [Compound 49, N-(6-(2-(((1r,4r)-4-aminocyclohexyl)amino)quinazolin-6-yl)pyridazin-3-yl)-2-chlorobenzene-sulfonamide]: at IRE1a [2], the IC50 is no more than 5 nM. `CCc1cc(-c2cc(F)c(NS(=O)(=O)c3ccccc3Cl)nc2OC)cc2cnc(N[C@H]3CC[C@@H](N(C)C)CC3)nc12` [Compound 142, 2-chloro-N-(5-(2-(((1s,4s)-4-(dimethylamino)cyclohexyl)amino)-8-ethylquinazolin-6-yl)-3-fluoro-6-methoxypyridin-2-yl)benzenesulfonamide]: the IC50 on IRE1a [2] lay within 5 to 50 nM. Consider `N[C@H]1CC[C@H](Nc2ncc3cc(-c4ccc(NS(=O)(=O)c5ccccc5Cl)c(F)c4)ccc3n2)CC1` [Compound 50, N-(4-(2-(((1r,4r)-4-aminocyclohexyl)amino)quinazolin-6-yl)-2-fluorophenyl)-2-chlorobenzene-sulfonamide], for which the IC50 at IRE1a [2] was no more than 5 nM. Turning to `COc1nc(NS(=O)(=O)c2ccccc2Cl)ccc1-c1cc(C)c2nc(N[C@H]3CC[C@@H](N(C)C)CC3)ncc2c1` [Compound 139, 2-chloro-N-(5-(2-(((1s,4s)-4-(dimethylamino)cyclohexyl)amino)-8-methylquinazolin-6-yl)-6-methoxypyridin-2-yl)benzenesulfonamide], the IC50 at IRE1a [2] was in the range of 5 to 50 nM. In the case of `Cc1cc(N(C)S(=O)(=O)c2ccccc2Cl)ccc1-c1cc(O)c2nc(N[C@H]3CC[C@H](N)CC3)ncc2c1` [Compound 30, N-(4-(2-(((1r,4r)-4-aminocyclohexyl)amino)-8-hydroxyquinazolin-6-yl)-3-methylphenyl)-2-chloro-N-methylbenzene-sulfonamide], the IC50 on IRE1a [2] was 50 to 100 nM.

As for `CCc1cc(-c2ccc(N(C)S(=O)(=O)c3ccccc3Cl)cc2C)cc2cnc(N[C@H]3CC[C@H](N)CC3)nc12` [Compound 31, N-(4-(2-(((1r,4r)-4-aminocyclohexyl)amino)-8-ethylquinazolin-6-yl)-3-methylphenyl)-2-chloro-N-methylbenzene-sulfonamide], at IRE1a [2], the IC50 was in the range of 100 to 10000 nM. Still for that read-out and setting: the figure for `CCc1cc(NS(=O)(=O)c2ccccc2Cl)nnc1-c1cc(CC)c2nc(N[C@H]3CC[C@H](N)CC3)ncc2c1` [Compound 96, N-(6-(2-(((1r,4r)-4-aminocyclohexyl)amino)-8-ethylquinazolin-6-yl)-5-ethylpyridazin-3-yl)-2-chlorobenzenesulfonamide] is no more than 5 nM; for `COc1cc(-c2ccc(NS(=O)(=O)c3ccccc3Cl)cc2C)cc2cnc(N[C@H]3CC[C@H](N)CC3)nc12` [Compound 36, N-(4-(2-(((1r,4r)-4-aminocyclohexyl)amino)-8-methoxyquinazolin-6-yl)-3-methylphenyl)-2-chlorobenzene-sulfonamide] it is no more than 5 nM. The same measure, in the same setting: the figure for `CCc1cc(-c2cc(F)c(NS(=O)(=O)c3ccccc3Cl)cc2OC)cc2cnc(N[C@H]3CC[C@H](N)CC3)nc12` [Compound 42, N-(4-(2-(((1r,4r)-4-aminocyclohexyl)amino)-8-ethylquinazolin-6-yl)-2-fluoro-5-methoxyphenyl)-2-chlorobenzene-sulfonamide] is no more than 5 nM. The same measure, in the same setting: the figure for `CCc1cc(-n2cc(NS(=O)(=O)c3ccccc3Cl)cn2)cc2cnc(N[C@H]3CC[C@H](N)CC3)nc12` [Compound 43, N-(1-(2-(((1r,4r)-4-aminocyclohexyl)amino)-8-ethylquinazolin-6-yl)-1H-pyrazol-4-yl)-2-chlorobenzene-sulfonamide] is no more than 5 nM; for `CCc1cc(-c2cnc(NS(=O)(=O)c3ccccc3Cl)nc2)cc2cnc(N[C@H]3CC[C@H](N)CC3)nc12` [Compound 39, N-(5-(2-(((1r,4r)-4-aminocyclohexyl)amino)-8-ethylquinazolin-6-yl)pyrimidin-2-yl)-2-chlorobenzene-sulfonamide] it is no more than 5 nM. For `CCc1cc(-c2cc(F)c(NS(=O)(=O)c3ccccc3Cl)nc2OC)cc2cnc(N[C@H]3CC[C@@](C)(N(C)C)CC3)nc12` [Compound 144, 2-chloro-N-(5-(2-(((1s,4s)-4-(dimethylamino)-4-methylcyclohexyl)amino)-8-ethylquinazolin-6-yl)-3-fluoro-6-methoxypyridin-2-yl)benzenesulfonamide], on IRE1a [2], the IC50 was in the range of 50 to 100 nM.

`CCc1cc(-c2ccc(NS(=O)(=O)c3ccccc3Cl)nc2OC)cc2cnc(N[C@H]3CC[C@@](C)(N(C)C)CC3)nc12` [Compound 143, 2-chloro-N-(5-(2-(((1s,4s)-4-(dimethylamino)-4-methylcyclohexyl)amino)-8-ethylquinazolin-6-yl)-6-methoxypyridin-2-yl)benzenesulfonamide]: the IC50 on IRE1a [2] lay within 5 to 50 nM.

With `CCc1cc(-c2sc(NS(=O)(=O)c3ccccc3Cl)nc2C)cc2cnc(N[C@H]3CC[C@H](N)CC3)nc12` [Compound 38], the 50% inhibitory concentration (IC50) at IRE1a [2] was no more than 5 nM. For `CCc1cc(-c2ccc(NS(=O)(=O)c3ccccc3Cl)nc2C)cc2cnc(N[C@H]3CC[C@H](N(C)CC(F)(F)F)CC3)nc12` [Compound 126, 2-chloro-N-(5-(8-ethyl-2-(((1r,4r)-4-(methyl(2,2,2-trifluoroethyl)amino)cyclohexyl)amino)quinazolin-6-yl)-6-methylpyridin-2-yl)benzenesulfonamide], on IRE1a [2], the IC50 lay within 50 to 100 nM. Regarding `CCc1cc(-c2cc(F)c(NS(=O)(=O)c3ccccc3Cl)c(F)c2)cc2cnc(N[C@H]3CC[C@H](N)CC3)nc12` [Compound 63, N-(4-(2-(((1r,4r)-4-aminocyclohexyl)amino)-8-ethylquinazolin-6-yl)-2,6-difluorophenyl)-2-chlorobenzene-sulfonamide], the IC50 at IRE1a [2] was no more than 5 nM. As for `COc1nc(NS(=O)(=O)c2ccccc2Cl)c(F)cc1-c1cc(C)c2nc(N[C@H]3CC[C@@H](N(C)C)CC3)ncc2c1` [Compound 147, 2-chloro-N-(5-(2-(((1s,4s)-4-(dimethylamino)cyclohexyl)amino)-8-methylquinazolin-6-yl)-3-fluoro-6-methoxypyridin-2-yl)benzenesulfonamide], on IRE1a [2], the IC50 lay within 5 to 50 nM.

For the compound `COc1cc(-c2cc(NS(=O)(=O)c3ccccc3Cl)nn2C)cc2cnc(N[C@H]3CC[C@H](N)CC3)nc12` [Compound 45, N-(5-(2-(((1r,4r)-4-aminocyclohexyl)amino)-8-methoxyquinazolin-6-yl)-1-methyl-1H-pyrazol-3-yl)-2-chlorobenzene-sulfonamide], the IC50 at IRE1a [2] was in the range of 50 to 100 nM. Still for that read-out and setting: in the case of `CC(C)c1cc(-c2cc(NS(=O)(=O)c3ccccc3Cl)nn2C)cc2cnc(N[C@H]3CC[C@H](N)CC3)nc12` [Compound 40, N-(5-(2-(((1r,4r) 4-aminocyclohexyl)amino)-8-isopropylquiazolin-6-yl)-1-methyl-1H-pyrazol-3-yl)-2-chlorobenzene-sulfonamide] it was no more than 5 nM; in that of `CCc1cc(-c2cnc(NS(=O)(=O)c3ccccc3Cl)s2)cc2cnc(N[C@H]3CC[C@H](N)CC3)nc12` [Compound 41], no more than 5 nM.

Values taken from patent US12071424B2, “IRE1 small molecule inhibitors” (Cornell University, priority 2017, dated 2024).
